These results are taken from publication PMC9237828, “Chemically Tuning Resveratrol for the Effective Killing of Gram-Positive Pathogens” (Journal of Natural Products, 2022).

Converted amounts (≈) assume the structure as drawn.

The subject of assay [1] is C. beijerinckii B504. In words: MIC test, anaerobes. Format: cell-based. The conditions noted are these: Clostridium beijerinckii, B504, 24 h; read-out: Minimal Inhibition Concentration (MIC) C. beijerinckii B504. As for the experimental part: (§1) The resveratrol derivatives were serially diluted in cMHB (BD Difco) in 96-well microplates. Plates were then inoculated with the indicator bacteria at a final concentration of 5 × 10^5 CFU/mL and incubated at 37 °C for 20 h. In the case of the anaerobic bacteria (Clostridium and Clostridioides), the test was performed following the recommendation of CLSI for anaerobes[77] but using RCM medium instead of cMHB. The cultures were cultivated inside an anaerobic chamber at 37 °C for 24 h. All the tests were performed in triplicate.

For assay [2], the system named is C. botulinum CECT551. Kind of assay: microbe, parasite or virus in culture. Format: cell-based. The conditions noted are these: Clostridium botulinum, CECT551, 24 h, read-out: Minimal Inhibition Concentration (MIC) C. botulinum CECT551.
In assay [3] the test system is C. tetani CECT4629. Kind of assay: microbe, parasite or virus in culture. The conditions noted are these: Clostridium tetani, CECT4629, 24 h, read-out: Minimal Inhibition Concentration (MIC) C. tetani CECT4629. Format: cell-based.
The subject of assay [4] is E. faecalis LMG08222. In words: microbe, parasite or virus in culture. Format: cell-based, Enterococcus faecalis. The conditions noted are these: Enterococcus faecalis, LMG08222, 20 h, read-out: Minimal Inhibition Concentration (MIC) E. faecalis LMG08222.
Assay [5] relates to E. faecalis LMG16216. In words: microbe, parasite or virus in culture. Format: cell-based, Enterococcus faecalis. The conditions noted are these: Enterococcus faecalis, LMG16216, 20 h, read-out: Minimal Inhibition Concentration (MIC) E. faecalis LMG16216.
In assay [6] the test system is E. faecium LMG11423. In words: microbe, parasite or virus in culture. Format: cell-based. The conditions noted are these: Enterococcus faecium, LMG11423, 20 h, read-out: Minimal Inhibition Concentration (MIC) E. faecium LMG11423.
Assay [7] deals with E. faecalis V583. Kind of assay: microbe, parasite or virus in culture. Format: cell-based, Enterococcus faecalis. The conditions noted are these: Enterococcus faecalis, V583, 20 h, read-out: Minimal Inhibition Concentration (MIC) E. faecalis V583.
The subject of assay [8] is E. faecium LMG16003. In words: microbe, parasite or virus in culture. The conditions noted are these: Enterococcus faecium, LMG16003, 20 h, read-out: Minimal Inhibition Concentration (MIC) E. faecium LMG16003. Format: cell-based.
For assay [9], the system named is B. cereus ATCC10987. In words: microbe, parasite or virus in culture. Format: cell-based, Bacillus cereus. As to conditions: Bacillus cereus, ATCC10987, 20 h, read-out: Minimal Inhibition Concentration (MIC) B. cereus ATCC10987.
The test system of assay [10] is B. cereus ATCC14579. In words: microbe, parasite or virus in culture. Format: cell-based, Bacillus cereus. The conditions noted are these: Bacillus cereus, ATCC14579, 20 h, read-out: Minimal Inhibition Concentration (MIC) B. cereus ATCC14579.
Assay [11] concerns panel of aerobic and anaerobic Gram-positive bacteria. In words: organism not typed. Format: cell-based.
Assay [12] has as its system C. ihumii AP5. Kind of assay: MIC test, anaerobes. As to conditions: 24 h; read-out: Minimal Inhibition Concentration (MIC) C. ihumii AP5. Format: cell-based. As to the method: as §1
For assay [13], the system named is C. perfringens CECT376. In words: microbe, parasite or virus in culture. Format: cell-based. The conditions noted are these: Clostridium perfringens, CECT376, 24 h, read-out: Minimal Inhibition Concentration (MIC) C. perfringens CECT376.
The subject of assay [14] is S.aureus LMG8224. Kind of assay: microbe, parasite or virus in culture. Format: cell-based, Staphylococcus aureus. As to conditions: Staphylococcus aureus, LMG8224, 20 h, read-out: Minimal Inhibition Concentration (MIC) S.aureus LMG8224.
In assay [15] the test system is S.aureus LMG10147. Kind of assay: microbe, parasite or virus in culture. Format: cell-based, Staphylococcus aureus. As to conditions: Staphylococcus aureus, LMG10147, 20 h, read-out: Minimal Inhibition Concentration (MIC) S.aureus LMG10147.
In assay [16] the test system is S.aureus LMG15975. Kind of assay: microbe, parasite or virus in culture. Format: cell-based, Staphylococcus aureus. The conditions noted are these: Staphylococcus aureus, LMG15975, 20 h, read-out: Minimal Inhibition Concentration (MIC) S.aureus LMG15975.
The subject of assay [17] is C. difficile CECT531. Kind of assay: microbe, parasite or virus in culture. Format: cell-based, Clostridioides difficile. As to conditions: Clostridioides difficile, CECT531, 24 h, read-out: Minimal Inhibition Concentration (MIC) C. difficile CECT531.
For assay [18], the system named is E. coli LMG8224. Kind of assay: Outer membrane permeabilization test (MIC with or without L-11 peptide).
The subject of assay [19] is E. faecium LMG16003. Kind of assay: Combined action with antibiotics (MIC reduction, checkerboard FICI). Format: cell-based.
The subject of assay [20] is S. aureus LMG8224. The description is as above. Format: cell-based, Staphylococcus aureus.
The mark [21] stands for this setting: fractional inhibitory concentration index, EUCAST, * means relevant FICI values.

As for `CCCCCCCC(=O)OC[C@H]1O[C@@H](Oc2cc(O)cc(/C=C/c3ccc(O)cc3)c2)[C@H](O)[C@@H](O)[C@@H]1O` [compound 3], the MIC in assay [1] was determined as 32 µM (≈ 16.5 µg/mL); in [2], 32 µM (≈ 16.5 µg/mL); in [3], 21.3 ± 5.3 µM (≈ 11 µg/mL).

Regarding `CCCCCCCCCCCCCCCCCC(=O)OC[C@H]1O[C@@H](Oc2cc(O)cc(/C=C/c3ccc(O)cc3)c2)[C@H](O)[C@@H](O)[C@@H]1O` [compound 6, piceid stearate], the MIC in assay [4] is 16 µM (≈ 10.5 µg/mL); in [5] it was 128 µM (≈ 84.1 µg/mL); in [6] it was 1 µM (≈ 0.657 µg/mL); in [7], 128 µM (≈ 84.1 µg/mL); in assay [8], 2.6 ± 0.6 µM (≈ 1.71 µg/mL).

Consider `CCOc1cc(O)cc(/C=C/c2ccc(O)cc2)c1` [compound 10], for which the MIC in assay [9] and in [10] was 128 µM (≈ 32.8 µg/mL) in each case.

Take `CC(C)(C)[Si](C)(C)Oc1cc(/C=C/c2ccc(O)cc2)cc(O[Si](C)(C)C(C)(C)C)c1` [compound 18]: the “antibacterial activity against the Gram-positive panel” value (from here on “antibacterial activity”) in [11] is reported as “not active or displayed very low antibacterial activity”.

Turning to `CC(C)(C)[Si](C)(C)Oc1ccc(/C=C/c2cc(O)cc(O[Si](C)(C)C(C)(C)C)c2)cc1` [compound 19], the MIC in [1] came out at 32 µM (≈ 14.6 µg/mL); in [12], 128 µM (≈ 58.5 µg/mL); in assay [13], 128 µM (≈ 58.5 µg/mL); in assay [2], 53.3 ± 10.6 µM (≈ 24.3 µg/mL); in assay [3], 5.3 ± 1.3 µM (≈ 2.42 µg/mL). In addition, the “antibacterial activity” value in [11] is “not active or displayed very low antibacterial activity”.

Regarding `CC[Si](CC)(CC)Oc1cc(/C=C/c2ccc(O)cc2)cc(O[Si](CC)(CC)CC)c1` [compound 21], the “antibacterial activity” value in assay [11] is “not active or displayed very low antibacterial activity”.

As for `CC(C)[Si](Oc1ccc(/C=C/c2cc(O[Si](C(C)C)(C(C)C)C(C)C)cc(O[Si](C(C)C)(C(C)C)C(C)C)c2)cc1)(C(C)C)C(C)C` [compound 22], in assay [11], the “antibacterial activity” value is recorded as “not active or displayed very low antibacterial activity”.

As for `CCCCCCCC(=O)OC[C@H]1O[C@@H](Oc2cc(/C=C/c3ccc(OC)cc3)cc(OC)c2)[C@H](O)[C@@H](O)[C@@H]1O` [compound 28], the MIC in [9] was found to be 128 µM (≈ 69.7 µg/mL); in assay [14], 128 µM (≈ 69.7 µg/mL); in assay [1], 32 µM (≈ 17.4 µg/mL); in [12] it was 64 µM (≈ 34.9 µg/mL); in [15], 128 µM (≈ 69.7 µg/mL); in assay [13] it was 128 µM (≈ 69.7 µg/mL). The MIC was 26.6 ± 5.3 µM (≈ 14.5 µg/mL) in assay [2]; 16 µM (≈ 8.71 µg/mL) in assay [3]; 128 µM (≈ 69.7 µg/mL) in assay [10]; 128 µM (≈ 69.7 µg/mL) in assay [16]; 85.3 ± 21.3 µM (≈ 46.5 µg/mL) in assay [17]. For the same compound, the “antibacterial activity” value in assay [11] was “weak antibacterial activity”.

As for `COc1cc(O)cc(/C=C/c2ccc(O[C@H]3O[C@@H](C(=O)O)[C@H](O)[C@@H](O)[C@@H]3O)cc2)c1` [compound 29], the “antibacterial activity” value in [11] is “did not show antibiotic activity”.

For the compound `COc1cc(/C=C/c2ccc(O[C@@H]3O[C@H](C(=O)O)[C@@H](O)[C@H](O)[C@H]3O)cc2)cc(OC)c1` [compound 30, PTER glucuronate], the MIC came to 16 µM (≈ 6.92 µg/mL) in assay [9]; 64 µM (≈ 27.7 µg/mL) in [4]; 128 µM (≈ 55.4 µg/mL) in assay [5]; 32 µM (≈ 13.8 µg/mL) in assay [14]; 10.7 ± 2.6 µM (≈ 4.63 µg/mL) in [1]; 8 µM (≈ 3.46 µg/mL) in [12]. For the same compound, the MIC was 32 µM (≈ 13.8 µg/mL) in assay [15]; 5.3 ± 1.3 µM (≈ 2.29 µg/mL) in assay [13]; more than 128 µM in assay [18] (Escherichia coli, LMG8224, read-out: MIC (μM) L-11 + 0 μM); 4 µM (≈ 1.73 µg/mL) in [2]; 4 µM (≈ 1.73 µg/mL) in [3]; 13.3 ± 2.6 µM (≈ 5.75 µg/mL) in assay [10]. For the same compound, the MIC in assay [16] was 32 µM (≈ 13.8 µg/mL); in assay [7], 128 µM (≈ 55.4 µg/mL); in assay [11], less than 16 µM; in [17], 13.3 ± 2.6 µM (≈ 5.75 µg/mL). The “MIC (μM) L-11 + 4 μM” value in [18] (presence of 4 μM L-11 outer-membrane-perturbing peptide) is 16 ± 0 µM.

For `CC(C)(C)[Si](C)(C)Oc1ccc(/C=C/c2cc(OS(=O)(=O)O)cc(OS(=O)(=O)O)c2)cc1` [compound 34, 3,5-Disulfate-4′-tert-butyldimethylsilyl resveratrol], the MIC amounted to 32 µM (≈ 16.1 µg/mL) in assay [1]; 128 µM (≈ 64.3 µg/mL) in assay [12]; 128 µM (≈ 64.3 µg/mL) in assay [13]; 53.3 ± 10.6 µM (≈ 26.8 µg/mL) in assay [2]; 5.3 ± 1.3 µM (≈ 2.66 µg/mL) in [3].

On to `CC(C)[Si](Oc1ccc(/C=C/c2cc(O[Si](C(C)C)(C(C)C)C(C)C)cc(OS(=O)(=O)O)c2)cc1)(C(C)C)C(C)C` [compound 36, 3-Sulfate-4′,5-diisopropylsilyl resveratrol], for which the MIC in assay [4] and in assay [7] was 128 µM (≈ 79.5 µg/mL) in each case.

Turning to `CNC(C)C1CCC(N)C(OC2C(N)CC(N)C(OC3OCC(C)(O)C(NC)C3O)C2O)O1` (centres unmarked) [gentamicin], the MIC in assay [9] is 4 µM (≈ 1.91 µg/mL); in assay [14], 1 ± 0.35 µM (≈ 0.478 µg/mL); in assay [13], more than 32 µM; in assay [7], more than 32 µM; in assay [17], more than 32 µM; in [8], 12.6 ± 1.61 µM (≈ 6 µg/mL). For the same compound, the “MIC of antibiotic in combination with 15” value in [19] (15 at 4 μM) was 13.3 ± 1.8 µM; in assay [19] (15 at 8 μM), 5.3 ± 0.9 µM; in assay [20] (15 at 2 μM) it was 0.5 ± 0 µM; in [20] (15 at 4 μM), 0.1 ± 0 µM. Besides, the “MIC of antibiotic in combination with 17” value is 13.3 ± 1.8 µM in assay [19] (17 at 2 μM), 6.6 ± 0.9 µM in assay [19] (17 at 4 μM), 0.3 ± 0 µM in [20] (17 at 2 μM) and 0.1 ± 0 µM in assay [20] (17 at 4 μM). For the same compound, the “FICI, antibiotic with 15” value was determined as 0.41 in assay [19] (setting [21]) and 0.37 in assay [20] (setting [21]). Moreover, the “FICI, antibiotic with 17” value in [19] (setting [21]) amounted to 0.66; in [20] (setting [21]), 0.58. For the same compound, the “MIC of antibiotic in combination with RES” value in assay [20] (RES at 4 μM) was found to be 1 ± 0 µM. In addition, the “MIC of antibiotic alone (Ab)” value in [20] (antibiotic alone) turned out to be 1 ± 0 µM.

Take `CN[C@H](CC(C)C)C(=O)N[C@H]1C(=O)N[C@@H](CC(N)=O)C(=O)N[C@H]2C(=O)N[C@H]3C(=O)N[C@H](C(=O)N[C@H](C(=O)O)c4cc(O)cc(O)c4-c4cc3ccc4O)[C@H](O)c3ccc(c(Cl)c3)Oc3cc2cc(c3O[C@@H]2O[C@H](CO)[C@@H](O)[C@H](O)[C@H]2O[C@H]2C[C@](C)(N)[C@H](O)[C@H](C)O2)Oc2ccc(cc2Cl)[C@H]1O` [vancomycin, reference compound]: the MIC in [9] is 6 ± 2 µM (≈ 8.7 µg/mL); in assay [14] it was 10.7 ± 2.7 µM (≈ 15.5 µg/mL); in assay [13], 0.18 ± 0.06 µM (≈ 0.261 µg/mL); in assay [7], 9.8 ± 2.7 µM (≈ 14.2 µg/mL); in assay [17] it was 1.25 ± 0.75 µM (≈ 1.81 µg/mL); in assay [8], more than 32 µM.

For the compound Resveratrol-3-glucuronate [compound 8], in assay [11], the “antibacterial activity” value is recorded as “did not show antibiotic activity”.
